Test results from ChEMBL document CHEMBL1127692, “Application of the three-dimensional structures of protein target molecules in structure-based drug design” (J Med Chem, 1994).
In brackets after ≈: the same amount, converted by molar mass.

Key:
[1] = target: T1, Human immunodeficiency virus type 1 protease (Human immunodeficiency virus 1, UniProt Q72874)
Description: Effective concentration of compound for inhibition of HIV 1 protease was determined

[2] = target: T1, Human immunodeficiency virus type 1 protease; remark: listed apart in the source
Description: Compound was evaluated for the inhibitory activity against HIV-1 protease

[3] = Compound was evaluated for the solubility at the pH 7.4; format: ADME; details: buffer
[4] = target: Human immunodeficiency virus type 1 protease (Human immunodeficiency virus 1) (UniProt Q72874)
Description: Compound was evaluated for the thymidine reversal of HIV-1 protease

[5] = target: T1, Human immunodeficiency virus type 1 protease; remark: listed apart in the source
Description: Inhibition of HIV-1 protease

Carbonic anhydrase 2 = Carbonic anhydrase 2 (Homo sapiens, UniProt P00918)
Description: Compound was evaluated for the inhibitory constant towards Human Carbonic anhydrase II (HCA II)

Thymidylate synthase = Thymidylate synthase (Homo sapiens, UniProt P04818)
Description: Compound was evaluated for the inhibitory constant of human thymidylate synthase

L1210 = test: cells; details: Mus musculus
Description: Compound was evaluated for the inhibitory activity of L1210 cells

Thymidylate synthase, sequence (P04818 whole entry): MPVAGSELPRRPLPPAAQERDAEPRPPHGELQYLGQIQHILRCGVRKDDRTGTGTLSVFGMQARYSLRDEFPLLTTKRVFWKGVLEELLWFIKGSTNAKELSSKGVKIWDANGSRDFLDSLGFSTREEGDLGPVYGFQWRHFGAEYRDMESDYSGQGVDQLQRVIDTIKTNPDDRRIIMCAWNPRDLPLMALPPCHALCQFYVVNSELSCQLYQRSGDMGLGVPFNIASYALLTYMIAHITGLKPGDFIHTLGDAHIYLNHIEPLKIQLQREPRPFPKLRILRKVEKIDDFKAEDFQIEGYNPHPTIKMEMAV

Compound: CC(C)[C@H](NC(=O)N(C)Cc1ccccn1)C(=O)N[C@@H](Cc1ccccc1)[C@H](O)[C@@H](O)[C@H](Cc1ccccc1)NC(=O)[C@@H](NC(=O)N(C)Cc1ccccn1)C(C)C [A-76928]
- EC50 [1]: 280 nM
- Ki [2]: 1.66 nM
- solubility [3]: 292 µM (≈ 232 µg/mL)

Compound: CN(Cc1ccc(S(=O)(=O)c2ccccc2)cc1)c1ccc2c3c(cccc13)C(N)=N2
- Thymidine reversal [4]: 2.3

Compound: CC(=O)N[C@H](C(=O)N[C@H](C(=O)N[C@@H](Cc1ccccc1)C(O)[C@H](Cc1ccccc1)NC(=O)[C@@H](NC(=O)[C@@H](NC(C)=O)C(C)C)C(C)C)C(C)C)C(C)C
- IC50 [5]: 10 nM

Compound: CCN(Cc1ccc(S(=O)(=O)N2CCNCC2)cc1)c1ccc2c3c(cccc13)C(=O)N2
- Thymidine reversal [4]: 1.1

Compound: CC(C)[C@H](NC(=O)N(C)Cc1ccccn1)C(=O)N[C@@H](Cc1ccccc1)[C@@H](O)[C@H](O)[C@H](Cc1ccccc1)NC(=O)[C@@H](NC(=O)N(C)Cc1ccccn1)C(C)C
- EC50 [1]: 60 nM
- Ki [2]: 0.18 nM
- solubility [3]: 4.7 µM (≈ 3.74 µg/mL)

Compound: CC(C)[C@H](NC(=O)N(C)Cc1ccccn1)C(=O)N[C@@H](Cc1ccccc1)[C@H](O)[C@H](O)[C@H](Cc1ccccc1)NC(=O)[C@@H](NC(=O)N(C)Cc1ccccn1)C(C)C [A-77003]
- EC50 [1]: 70 nM
- Ki (Carbonic anhydrase 2): 140 nM
- Ki [2]: 0.15 nM
- solubility [3]: 256 µM (≈ 204 µg/mL)

Compound: CC(C)(C)OC(=O)N[C@@H](Cc1ccccc1)[C@@H](O)[C@H](O)[C@H](Cc1ccccc1)NC(=O)OC(C)(C)C
- IC50 [5]: 280 nM

Compound: CC(C)[C@H](NC(=O)OCc1ccccc1)C(=O)N[C@@H](Cc1ccccc1)C(O)C(O)[C@H](Cc1ccccc1)NC(=O)[C@@H](NC(=O)OCc1ccccc1)C(C)C (single isomer, unassigned; 13)
- IC50 [5]: 0.38 nM

Compound: CC(C)[C@H](NC(=O)OCc1ccccc1)C(=O)N[C@@H](Cc1ccccc1)[C@H](O)[C@H](O)[C@H](Cc1ccccc1)NC(=O)[C@@H](NC(=O)OCc1ccccc1)C(C)C
- IC50 [5]: 0.22 nM

Compound: CC(C)[C@H](NC(=O)OCc1ccccn1)C(=O)N[C@@H](Cc1ccccc1)[C@H](O)[C@H](O)[C@H](Cc1ccccc1)NC(=O)[C@@H](NC(=O)OCc1ccccn1)C(C)C
- EC50 [1]: 20 nM
- Ki [2]: 0.09 nM
- solubility [3]: 3.1 µM (≈ 2.38 µg/mL)

Compound: CC(C)[C@H](N)C(=O)N[C@@H](Cc1ccccc1)C(O)[C@H](Cc1ccccc1)NC(=O)[C@@H](N)C(C)C
- IC50 [5]: 590 nM

Compound: CC(C)(C)OC(=O)N[C@@H](Cc1ccccc1)C(O)[C@H](Cc1ccccc1)NC(=O)OC(C)(C)C
- IC50 [5]: 3000 nM

Compound: CC(C)[C@H](NC(=O)N(C)Cc1ccccn1)C(=O)N[C@@H](Cc1ccccc1)CC(O)[C@H](Cc1ccccc1)NC(=O)[C@@H](NC(=O)N(C)Cc1ccccn1)C(C)C (single isomer, unassigned)
- Ki (Carbonic anhydrase 2): 17 nM

Compound: N[C@@H](Cc1ccccc1)C(O)[C@@H](N)Cc1ccccc1
- IC50 [5]: > 10000 nM

Compound: CC(C)(C)OC(=O)N[C@@H](Cc1ccccc1)[C@H](O)[C@@H](O)[C@H](Cc1ccccc1)NC(=O)OC(C)(C)C
- IC50 [5]: 40 nM

Compound: CN(Cc1ccc(S(=O)(=O)N2CCOCC2)cc1)c1ccc2c3c(cccc13)C(N)=N2
- Ki (Thymidylate synthase): 2 nM

Compound: CC(=O)N[C@@H](Cc1ccccc1)C(O)[C@H](Cc1ccccc1)NC(C)=O
- IC50 [5]: > 10000 nM

Compound: CC(C)[C@H](NC(=O)OCc1ccccc1)C(=O)N[C@@H](Cc1ccccc1)C(O)C(O)[C@H](Cc1ccccc1)NC(=O)[C@@H](NC(=O)OCc1ccccc1)C(C)C (single isomer, unassigned; 11)
- IC50 [5]: 0.22 nM

Compound: CC(C)[C@H](NC(=O)OCc1ccccn1)C(=O)N[C@@H](Cc1ccccc1)[C@H](O)[C@@H](O)[C@H](Cc1ccccc1)NC(=O)[C@@H](NC(=O)OCc1ccccn1)C(C)C
- EC50 [1]: 120 nM
- Ki [2]: 0.16 nM

Compound: CC(C)[C@H](NC(=O)OCc1ccccn1)C(=O)N[C@@H](Cc1ccccc1)[C@@H](O)[C@H](O)[C@H](Cc1ccccc1)NC(=O)[C@@H](NC(=O)OCc1ccccn1)C(C)C
- EC50 [1]: 50 nM
- Ki [2]: 0.19 nM
- solubility [3]: 0.27 µM (≈ 0.208 µg/mL)

Compound: CNC1=Nc2ccc(N(C)Cc3ccc(S(=O)(=O)N4CCOCC4)cc3)c3c(C)ccc1c23
- IC50 (L1210): 150 nM
- Thymidine reversal [4]: 12.7
- Ki (Thymidylate synthase): 2 nM

Compound: CN(Cc1ccc(S(=O)(=O)N2CCOCC2)cc1)c1ccc2c3c(cccc13)C(=N)N2
- IC50 (L1210): 300 nM
- Thymidine reversal [4]: 8.5
